Patent publication US8022205B2, “Pyrimidine derivatives as PI3K inhibitor and use thereof” (Chugai Seiyaku Kabushiki Kaisha, priority 2006, dated 2011)

Tests used:
[1] = test system: human prostate cancer cell line PC3; assay: Cell proliferation inhibitory activity (Cell Counting Kit-8), prostate cancer PC3; format: cell-based; settings: 96 h, PC3, 4 days
Experimental: (§1) The cell proliferation inhibitory activity was measured for compounds of the present invention represented by formula (I). Cancer cell proliferation inhibitory activity was measured using the Cell Counting Kit-8 (Dojindo). 2000 cells each of human colon cancer cell line HCT116 purchased from the American Type Culture Collection (Virginia, USA) were seeded into each well of a 96-well culture plate followed by the addition of a predetermined concentration of the compounds and cultivating in a CO2environment for 4 days at 37° C. On the fourth day of cultivating, the Cell Counting Kit-8 solution was added and absorbance (measuring wavelength: 450 nm, reference wavelength: 615 nm) was measured in accordance with the protocol provided with the kit.
(§2) Cancer cell proliferation inhibitory activity was also measured for human lung cancer cell line NCI-H460 and human prostate cancer cell line PC3 purchased from the American Type Culture Collection. 1000 and 3000 cells of NCI-H460 and PC3, respectively, were seeded into each well of a 96-well culture plate followed by testing in the same manner as the human colon cancer cell line and calculating the percentage of cell proliferation inhibition at 2.5 μM.

human PI3K(p110α/p85α) = human PI3K(p110α/p85α) (Homo sapiens, UniProt P42336); assay: Measurement of PI3K inhibitory activity (AlphaScreen GST Detection Kit); format: biochemical; settings: 10 μM ATP, 4 μM PI(4,5)P2, read-out: Enzyme inhibitory activity (IC50, μM) PI3K α
Experimental: The inhibitory activity of compounds of the present invention represented by formula (I) were measured with human PI3K(p110α/p85α) prepared in a baculovirus expression system using the AlphaScreen GST Detection Kit (Perkin Elmer, Inc.). A predetermined concentration of the compound dissolved in dimethylsulfoxide (DMSO) and PI3K were mixed in a 384-well assay plate and after allowing to stand for 20 minutes at room temperature, 4 μM PI(4,5)P2 (Echelon Corporation) and 10 μM ATP (5 mM Hepes, pH 7.5, 2.5 mM MgCl2) were added to initiate the reaction. After reacting for 15 minutes at 37° C., GST-GRP1 expressed and purified from Escherichia coli, Anti-GST Acceptor Beads (Perkin Elmer, Inc.), Streptavidin Donor Beads (Perkin Elmer, Inc.) and biotin-PI(3,4,5) P3 (Echelon Corporation) (10 mM Tris-HCl pH 7.4, 150 mM NaCl, 7.5 mM EDTA, 1 mM DTT, 0.1% Tween 20) were added, and after allowing to stand for 1 hour at room temperature, light at 520 to 620 nm emitted as a result of exciting with light at 680 nm was measured with the Envision measuring instrument (Perkin Elmer, Inc.).
Test Example 1 described above can be performed according to “Analytical Biochemistry, 2003, 313, 234-245; Alexander Gray et al”.

[2] = test system: human colon cancer cell line HCT116; assay: Cell proliferation inhibitory activity (Cell Counting Kit-8), colon cancer HCT116; format: cell-based; settings: HCT-116, 96 h, HCT116, 4 days
Experimental: as §1

[3] = test system: human lung cancer cell line NCI-H460; assay: Cell proliferation inhibitory activity (Cell Counting Kit-8), lung cancer NCI-H460; format: cell-based; settings: 96 h, NCI-H460, 4 days, read-out: Cell proliferation inhibitory activity (% Inhibition at 2.5 μM) Non-small cell lung cancer (NCI-H460)
Experimental: as §1, §2

Sequence of human PI3K(p110α/p85α) (P42336 whole entry): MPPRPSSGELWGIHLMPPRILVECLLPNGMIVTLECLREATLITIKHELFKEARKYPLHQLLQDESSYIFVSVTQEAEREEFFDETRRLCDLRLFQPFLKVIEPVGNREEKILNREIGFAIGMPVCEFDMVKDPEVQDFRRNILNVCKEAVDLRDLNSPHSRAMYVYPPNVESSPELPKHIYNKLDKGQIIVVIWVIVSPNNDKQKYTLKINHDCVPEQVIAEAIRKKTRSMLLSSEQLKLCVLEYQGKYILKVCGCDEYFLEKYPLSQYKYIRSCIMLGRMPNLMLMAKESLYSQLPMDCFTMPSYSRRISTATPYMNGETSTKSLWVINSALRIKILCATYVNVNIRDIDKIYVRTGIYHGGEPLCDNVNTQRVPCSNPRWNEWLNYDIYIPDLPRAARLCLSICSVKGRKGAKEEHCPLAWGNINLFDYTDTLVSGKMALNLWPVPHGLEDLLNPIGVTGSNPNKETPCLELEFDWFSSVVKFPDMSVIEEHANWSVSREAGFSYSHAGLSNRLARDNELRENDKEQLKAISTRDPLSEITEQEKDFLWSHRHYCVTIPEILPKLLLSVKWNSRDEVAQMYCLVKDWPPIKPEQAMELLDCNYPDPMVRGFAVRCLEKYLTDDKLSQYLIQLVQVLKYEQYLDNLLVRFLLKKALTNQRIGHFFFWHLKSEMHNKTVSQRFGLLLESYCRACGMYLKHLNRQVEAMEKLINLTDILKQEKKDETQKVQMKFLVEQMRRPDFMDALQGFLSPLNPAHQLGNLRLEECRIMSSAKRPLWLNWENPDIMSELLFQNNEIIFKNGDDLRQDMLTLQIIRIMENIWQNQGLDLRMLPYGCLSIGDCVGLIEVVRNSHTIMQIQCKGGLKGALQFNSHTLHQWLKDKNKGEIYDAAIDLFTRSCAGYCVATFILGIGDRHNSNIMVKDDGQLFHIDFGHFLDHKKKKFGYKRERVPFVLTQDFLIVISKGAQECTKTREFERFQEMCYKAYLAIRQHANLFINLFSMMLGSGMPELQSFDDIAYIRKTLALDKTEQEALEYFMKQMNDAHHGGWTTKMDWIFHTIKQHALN
Sequence of human PI3K(p110α/p85α) (P27986 whole entry partner): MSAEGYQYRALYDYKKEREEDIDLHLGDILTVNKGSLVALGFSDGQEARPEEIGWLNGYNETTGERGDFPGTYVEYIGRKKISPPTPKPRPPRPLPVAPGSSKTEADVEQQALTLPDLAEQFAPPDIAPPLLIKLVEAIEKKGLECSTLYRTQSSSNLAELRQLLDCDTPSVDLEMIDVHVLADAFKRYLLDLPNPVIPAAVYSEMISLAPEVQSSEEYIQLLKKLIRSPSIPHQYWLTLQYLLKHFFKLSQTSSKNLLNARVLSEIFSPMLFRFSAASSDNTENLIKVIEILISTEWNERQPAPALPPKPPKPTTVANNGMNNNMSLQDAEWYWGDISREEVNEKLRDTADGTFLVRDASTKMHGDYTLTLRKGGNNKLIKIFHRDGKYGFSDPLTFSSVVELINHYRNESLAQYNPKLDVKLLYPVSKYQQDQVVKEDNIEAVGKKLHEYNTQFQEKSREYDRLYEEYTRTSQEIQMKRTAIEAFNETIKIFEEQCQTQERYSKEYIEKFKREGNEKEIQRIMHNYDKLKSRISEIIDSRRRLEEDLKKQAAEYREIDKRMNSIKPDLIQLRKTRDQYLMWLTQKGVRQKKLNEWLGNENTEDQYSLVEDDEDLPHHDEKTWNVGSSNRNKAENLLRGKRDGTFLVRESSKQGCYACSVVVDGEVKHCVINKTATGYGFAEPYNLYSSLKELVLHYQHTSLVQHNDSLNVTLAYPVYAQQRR

IC50 (human PI3K(p110α/p85α)) [µM]	SMILES	inhibition at 2.5 µM [1] [%]	inhibition at 2.5 µM [2] [%]	inhibition at 2.5 µM [3] [%]
0.11	CCN1CCN(C(=O)c2ccc(N3CCc4c(-c5cnc(N)nc5)nc(N5CCOCC5)nc43)c(F)c2)CC1 [Example D-138, {4-[4-(2-Amino-pyrimidin-5-yl)-2-morpholin-4-yl-5,6-dihydro-pyrrolo[2,3-d]pyrimidin-7-yl]-3-fluoro-phenyl}-(4-ethyl-piperazin-1-yl)-methanone]	85	82	86
0.009	CN(CCN1CCOCC1)C(=O)c1ccc(N2CCc3c(-c4cnc(N)nc4)nc(N4CCOCC4)nc32)cc1 [Example D-139, 4-[4-(2-Amino-pyrimidin-5-yl)-2-morpholin-4-yl-5,6-dihydro-pyrrolo[2,3-d]pyrimidin-7-yl]-N-methyl-N-(2-morpholin-4-yl-ethyl)-benzamide]	89	90	72
0.008	Nc1ncc(-c2nc(N3CCOCC3)nc3c2CCN3c2ccc(CC(=O)N3CCNCC3)cc2)cn1 [Example D-172, 2-{4-[4-(2-Amino-pyrimidin-5-yl)-2-morpholin-4-yl-5,6-dihydro-pyrrolo[2,3-d]pyrimidin-7-yl]-phenyl}-1-piperazin-1-yl-ethanone]	86	86	79
0.007	Cc1ccc(C(=O)N2CCN(C)CC2)cc1NC(=O)N1CCc2c(-c3cnc(N)nc3)nc(N3CCOCC3)nc21 [Example D-223, 4-(2-Amino-pyrimidin-5-yl)-2-morpholin-4-yl-5,6-dihydro-pyrrolo[2,3-d]pyrimidine-7-carboxylic acid [2-methyl-5-(4-methyl-piperazine-1-carbonyl)-phenyl]-amide]	95	95	92
0.011	CN1CCN(C(=O)c2ccc(NC(=S)N3CCc4c(-c5cnc(N)nc5)nc(N5CCOCC5)nc43)cc2)CC1 [Example D-231, 4-(2-Amino-pyrimidin-5-yl)-2-morpholin-4-yl-5,6-dihydro-pyrrolo[2,3-d]pyrimidine-7-carbothioic acid [4-(4-methyl-piperazine-1-carbonyl)-phenyl]-amide]	37	33	71
0.005	Cc1ccc(N2CCOCC2)cc1NC(=O)N1CCc2c(-c3cnc(N)nc3)nc(N3CCOCC3)nc21 [Example D-237, 4-(2-Amino-pyrimidin-5-yl)-2-morpholin-4-yl-5,6-dihydro-pyrrolo[2,3-d]pyrimidine-7-carboxylic acid (2-methyl-5-morpholin-4-yl-phenyl)-amide]	97	95	84
0.01	CCN1CCN(c2ccc(NC(=O)N3CCc4c(-c5cnc(N)nc5)nc(N5CCOCC5)nc43)c(C)c2)CC1 [Example D-242, 4-(2-Amino-pyrimidin-5-yl)-2-morpholin-4-yl-5,6-dihydro-pyrrolo[2,3-d]pyrimidine-7-carboxylic acid [4-(4-ethyl-piperazin-1-yl)-2-methyl-phenyl]-amide]	100	99	55
0.007	Nc1ncc(-c2nc(N3CCOCC3)nc3c2CCN3c2ccc(C(=O)NCc3ccncc3)cc2)cn1 [Example D-264, 4-[4-(2-Amino-pyrimidin-5-yl)-2-morpholin-4-yl-5,6-dihydro-pyrrolo[2,3-d]pyrimidin-7-yl]-N-pyridin-4-ylmethyl-benzamide]	72	63	82
0.006	Nc1ncc(-c2nc(N3CCOCC3)nc3c2CCN3c2ccc(C(=O)N3CCN(c4ccncc4)CC3)cc2)cn1 [Example D-265, {4-[4-(2-Amino-pyrimidin-5-yl)-2-morpholin-4-yl-5,6-dihydro-pyrrolo[2,3-d]pyrimidin-7-yl]-phenyl}-(4-pyridin-4-yl-piperazin-1-yl)-methanone]	96	98	71
0.01	Nc1ncc(-c2nc(N3CCOCC3)nc3c2CCN3C(=O)Nc2c(F)cc(N3CCOCC3)cc2F)cn1 [Example D-273, 4-(2-Amino-pyrimidin-5-yl)-2-morpholin-4-yl-5,6-dihydro-pyrrolo[2,3-d]pyrimidine-7-carboxylic acid (2,6-difluoro-4-morpholin-4-yl-phenyl)-amide]	79	83	67
0.008	Nc1ncc(-c2nc(N3CCOCC3)nc3c2CCN3c2ccc(C(=O)N3CCN(c4ccncc4)CC3)cc2F)cn1 [Example D-286, {4-[4-(2-Amino-pyrimidin-5-yl)-2-morpholin-4-yl-5,6-dihydro-pyrrolo[2,3-d]pyrimidin-7-yl]-3-fluoro-phenyl}-(4-pyridin-4-yl-piperazin-1-yl)-methanone]	89	94	97
0.009	CCN1CCN(c2ccc(C)c(NC(=S)N3CCc4c(-c5cnc(N)nc5)nc(N5CCOCC5)nc43)c2)CC1 [Example D-290, 4-(2-Amino-pyrimidin-5-yl)-2-morpholin-4-yl-5,6-dihydro-pyrrolo[2,3-d]pyrimidine-7-carbothioic acid [5-(4-ethyl-piperazin-1-yl)-2-methyl-phenyl]-amide]	99	99	18
0.009	Nc1ncc(-c2nc(N3CCOCC3)nc3c2CCN3c2ccc(C(=O)N3CCC(N4CCOCC4)CC3)cc2)cn1 [Example D-307, {4-[4-(2-Amino-pyrimidin-5-yl)-2-morpholin-4-yl-5,6-dihydro-pyrrolo[2,3-d]pyrimidin-7-yl]-phenyl}-(4-morpholin-4-yl-piperidin-1-yl)-methanone]	89	87	58
0.007	CN(Cc1cccnc1)C(=O)c1ccc(N2CCc3c(-c4cnc(N)nc4)nc(N4CCOCC4)nc32)c(F)c1 [Example D-318, 4-[4-(2-Amino-pyrimidin-5-yl)-2-morpholin-4-yl-5,6-dihydro-pyrrolo[2,3-d]pyrimidin-7-yl]-3-fluoro-N-methyl-N-pyridin-3-ylmethyl-benzamide]	94	96	89
0.11	CN1CCN(Cc2ccc(N3CCc4c(-c5cnc(N)nc5)nc(N5CCOCC5)nc43)cc2F)CC1 [Example D-325, 5-{7-[3-fluoro-4-(4-methyl-piperazin-1-ylmethyl)-phenyl]-2-morpholin-4-yl-6,7-dihydro-5H-pyrrolo[2,3-d]pyrimidin-4-yl}-pyrimidin-2-ylamine]	73	78	81
0.24	CN1CCN(Cc2ccc(N3CCc4c(-c5cnc(N)nc5)nc(N5CCOCC5)nc43)c(F)c2)CC1 [Example D-326, 5-{7-[2-fluoro-4-(4-methyl-piperazin-1-ylmethyl)-phenyl]-2-morpholin-4-yl-6,7-dihydro-5H-pyrrolo[2,3-d]pyrimidin-4-yl}-pyrimidin-2-ylamine]	81	72	83
0.07	CCCN1CCN(Cc2ccc(N3CCc4c(-c5cnc(N)nc5)nc(N5CCOCC5)nc43)cc2)CC1 [Example D-327, 5-{2-morpholin-4-yl-7-[4-(4-propyl-piperazin-1-ylmethyl)-phenyl]-6,7-dihydro-5H-pyrrolo[2,3-d]pyrimidin-4-yl}-pyrimidin-2-ylamine]	79	78	85
0.06	CC(C)N1CCN(Cc2ccc(N3CCc4c(-c5cnc(N)nc5)nc(N5CCOCC5)nc43)cc2)CC1 [Example D-328, 5-{7-[4-(4-isopropyl-piperazin-1-ylmethyl)-phenyl]-2-morpholin-4-yl-6,7-dihydro-5H-pyrrolo[2,3-d]pyrimidin-4-yl}-pyrimidin-2-ylamine]	84	84	91
